Test [1] relates to ragweed. Briefly: Example 3: assay with other non-ionic surfactants, ragweed plots in waste area situation. It is filed as in vivo. Here is the method:
This experiment was conducted to test another solution containing another non-ionic surfactant. The experiment was conducted on plots behind a beef barn complex, on ragweed of 6 to 10 inches in height, fully flowered, in a very hard and gravely soil, such as in a waste area situation. The experiment was conducted as a completely randomized design (CRD) with three replicates.
Each plot has a surface of one (1) m^2. The sprayer used was a small compressed air sprayer with 210 kPa pressure and a T-Jet™ 8002 nozzle. The plots were sprayed Sep. 3, 1996 at 10:00 a.m. under a bright sunshine and a temperature of 28° C. In all instances, the efficacy of the solution was evaluated 20-30 minutes, 2-4 hrs, 16-24 hrs, and 2-5 days after spraying. The efficacy of the solution was determined based on level of plant deterioration.
In this experiment, 14 different treatments were applied to the different plots (with three replicates/treatment).
Once it had been determined that a surfactant could possibly increase efficacy of the NaCl at the same time as reducing the spray volume needed, another non-ionic surfactant, namely Citowett™, was introduced into the trials. All surfactants were applied at the rates usually recommended in the Ontario Guide to Chemical Weed Control (OMAFRA, 1997).

In test [2] the test system is ragweed. Briefly: General conclusions on ragweed control from the experiments. It is filed as in vivo.
For test [3], the system named is ragweed. Briefly: Example 2: determination of an adequate volume sprayed, ragweed plots sprayed at 1000 l/ha. The test is classed as in vivo. How it is done:
This experiment was conducted to determine if increasing the spray volume to the point where the plants were completely covered to the run-off stage would improve efficacy.
This experiment was conducted on plots within a fencerow of an agricultural field where ragweed plants had attained 12 to 20 inches in height, and were in full flower. The experiment was conducted as a completely randomized design (CRD) with three replicates.
Each plot has a surface of one (1) m^2. The sprayer used was a Hardi™ pack sprayer with Hardi™ nozzle and 200-220 kPa of pressure. The plots were sprayed Aug. 29, 1996 at 13:30 under a bright sunshine and a temperature of 29° C. The spray volume used was 1000 l/ha or 100 ml/m^2 plot.
In all instances, the efficacy of the solution was evaluated 30 minutes, 2-4 hrs, 16-24 hrs, and 2-5 days after spraying. The efficacy of the solution was determined based on level of plant deterioration.
In this experiment, 6 different treatments (having three replicates each) were subjected to the different plots.

The test system of test [4] is ragweed. Briefly: Example 4: concentration of salt with or without surfactants, tall ragweed in cultivated field. Conditions: tall ragweed (40-60 inches). The test is classed as in vivo. How it is done:
This experiment was conducted on plot of tall ragweed (40-60 inches), fully flowered, in a cultivated field situation. The experiment was conducted as a completely randomized design (CRD) with three replicates.
Each plot has a surface of four (4) m^2. The sprayer used was a Hardi™ pack sprayer with 200-220 kPa pressure and T-Jet™ 8002 nozzle. The plots were sprayed Sep. 6, 1996 at 09:00 a.m. under a bright sunshine and a temperature of 26° C. In all instances, the efficacy of the solution was evaluated 30 minutes, 2-4 hrs, 16-24 hrs, and 2-5 days after spraying. The efficacy of the solution was determined based on level of plant deterioration.
(§1) In this experiment, 8 different treatments were applied to the different plots (with three replicates/treatment).

For test [5], the system named is ragweed. As to the kind of experiment: Example 5: optimization of salt concentration with or without surfactants, cut ragweed in roadside situation. The test is classed as in vivo. How it is done: This experiment was conducted on plots having ragweed 4 to 6 inches tall, in flower, and which had been cut at least once, in a roadside situation. The experiment was conducted as a randomized complete block design (RCBD) with three replicates.
Each plot has a surface of four (4) m^2. The sprayer used was a small compressed air sprayer with 210 kPa pressure and T-Jet™ 8002 nozzle. The plots were sprayed Sep. 6, 1996 at 13:30, under a bright sunshine and a temperature of 29° C. In all instances, the efficacy of the solution was evaluated 30 minutes, 2-4 hrs, 16-24 hrs, and 2-5 days after spraying. The efficacy of the solution was determined based on level of plant deterioration.
as §1
Only the 8% and 12% rates were considered in this experiment because it had been observed that there was no efficacy or economic benefit to using the 16% or 20% rates of NaCl. Both NaCl concentrations were applied alone or with each of the three surfactants.

The test system of test [6] is ragweed. Briefly: Spraying of ragweed plants as described in the description and FIGS. 1-3. To be noted: 12% NaCl solution. The test is classed as in vivo.
In a further test the test system is broad-leaved plantain. Briefly: Selective control of broad-leaved plantain in turf (FIG. 4). It is filed as in vivo. Conditions: 12% NaCl solution; 24 hours following the application.
Another test has as its system all types of vegetation. Conditions: Frear, Chemistry of Pesticides 3rd ed. p. 401, 1955; cited from earlier work.

The values that follow come from patent US6372690B1 (McGill University, priority 1998, dated 2002).

Entries after “also recorded” stand apart in the source; their conditions may differ.

Consider `O=[N+]([O-])[O-].[K+]` [KNO3, potassium nitrate, reference compound], for which the “efficacy compared with the NaCl solutions” value with ragweed [1] (12% KNO3) is “not as effective as any of the NaCl solutions”. The “suitability as alternative to NaCl” value with ragweed [2] (KNO3 at the 12% rate) is recorded as “not a viable alternative to NaCl”.
`[Cl-].[Na+]` [NaCl, sodium chloride]: in the test with ragweed [3] (8% NaCl), the “activity at damaging the ragweed” value is on record as “there was activity but it did not seem to be as effective as the 12% concentration”. In addition, the overall efficacy entry in the test on ragweed [3] (12% NaCl) is recorded as “sufficient”. In addition, the “difference in effect between 12% and 16% solution” value in the test on ragweed [3] (16% NaCl versus 12% NaCl, any time except 30 minutes after application) is recorded as “little difference”. Further, in the test with ragweed [3] (16% NaCl, 30 minutes after application), the speed of wilting result is reported as “appeared to have wilted more quickly than those treated with 12%”. Also, in the test on ragweed [3] (NaCl at all three concentrations (8, 12, 16% W/V), 30 minutes after spraying), the “reaction of ragweed to the sprays” value was “the inflorescences were drooping”. In addition, in the test on ragweed [1] (8% NaCl alone), the “efficacy compared with the 12% solution” value is reported as “not as effective as the 12% solution”. Further, the “overall damage to the ragweed compared with the 12% solution” value in the test on ragweed [1] (16% NaCl) and in the test with ragweed [1] (20% NaCl) was “did not visibly improve overall damage to the ragweed” in each case. In addition, the control result in the test with ragweed [4] (8% NaCl) was “slightly lower”. For the same compound, the “efficiency compared with higher concentrations” value in the test with ragweed [4] (12% NaCl without surfactant) is recorded as “as efficient as 16% or 20%”. Moreover, in the test on ragweed [5] (8% NaCl alone), the control of ragweed entry is “inferior control of ragweed compared with the 12% solution”. Besides, the “effect 30 minutes after application” value in the test on ragweed [5] (12% NaCl alone, 30 minutes) is “drooping”. Moreover, the “effect 2 days after spraying” value with ragweed [5] (12% NaCl alone, 2 days) is reported as “complete necrosis”. Moreover, the “effect on ragweed plants (FIGS. 2 and 3)” value in the test with ragweed [6] (24 hours following spraying) was “drooping of ragweed staminate flowers and desiccation of leaves; also recorded: desiccated”. Also, in the test with ragweed [6] (within 6 hours of applying), the “effect on ragweed plant (FIG. 1)” value is “curling and wilting”. Further, the “control of broad-leaved plantain in turf (FIG. 4)” value in the test with broad-leaved plantain is reported as “selective control”. Also, the “ragweed control (general conclusion)” value in the test on ragweed [2] (salt solutions, especially NaCl solutions) was “effective at ragweed control”. Further, in the test on all types of vegetation, the “herbicidal effect and selectivity” value is “will kill all types of vegetation, without any selection”.
